Laboratory results taken from ChEMBL document CHEMBL1909046, “DrugMatrix in vitro pharmacology data”.

Tests used:
[1] = biological target: T1, Alpha-2C adrenergic receptor (Homo sapiens, UniProt P18825); experiment: DRUGMATRIX: Adrenergic Alpha-2C radioligand binding (ligand: [3H] MK-912); type: cell membranes, Sf9, Membrane; conditions: sf9
T1 sequence (P18825 whole entry): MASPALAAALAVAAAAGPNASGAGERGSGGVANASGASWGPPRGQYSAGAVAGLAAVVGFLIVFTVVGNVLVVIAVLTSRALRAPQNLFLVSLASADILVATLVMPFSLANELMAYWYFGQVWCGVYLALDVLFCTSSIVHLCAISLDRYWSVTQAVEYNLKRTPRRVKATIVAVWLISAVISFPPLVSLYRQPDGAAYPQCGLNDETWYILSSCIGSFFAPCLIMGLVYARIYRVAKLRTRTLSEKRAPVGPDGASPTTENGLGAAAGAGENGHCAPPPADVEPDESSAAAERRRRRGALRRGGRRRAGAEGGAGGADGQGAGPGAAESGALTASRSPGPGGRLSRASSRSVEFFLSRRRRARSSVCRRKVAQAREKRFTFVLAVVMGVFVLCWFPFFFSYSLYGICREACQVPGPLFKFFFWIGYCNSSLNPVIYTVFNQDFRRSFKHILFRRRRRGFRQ

[2] = biological target: T2, Interstitial collagenase (Homo sapiens, UniProt P03956); type: tissue-based, Rheumatoid synovial fibroblasts;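 also: MMP-1 enzyme inhibition assay using a peptide substrate; in other assays of this panel Not Active means under 50% inhibition at 10 µM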
T2 sequence (P03956 whole entry): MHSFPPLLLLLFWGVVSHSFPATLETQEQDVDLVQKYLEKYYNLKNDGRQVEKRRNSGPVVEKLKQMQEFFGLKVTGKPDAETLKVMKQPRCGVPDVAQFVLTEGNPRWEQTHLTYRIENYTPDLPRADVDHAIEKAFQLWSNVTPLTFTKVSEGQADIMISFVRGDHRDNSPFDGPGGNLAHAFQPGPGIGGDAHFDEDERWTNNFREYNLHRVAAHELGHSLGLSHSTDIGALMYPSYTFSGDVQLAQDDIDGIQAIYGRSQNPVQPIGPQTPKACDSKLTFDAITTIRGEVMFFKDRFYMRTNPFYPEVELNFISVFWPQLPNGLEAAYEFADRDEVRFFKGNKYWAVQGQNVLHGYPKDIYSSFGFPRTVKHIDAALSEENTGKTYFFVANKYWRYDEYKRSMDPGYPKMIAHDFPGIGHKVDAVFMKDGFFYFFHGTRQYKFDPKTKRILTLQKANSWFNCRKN

[3] = DRUGMATRIX: Glutamate, Kainate radioligand binding (ligand: [3H] Kainic acid); type: cell membranes, Rattus norvegicus, Wistar, Brain, Membrane; conditions: Not Active = under 50% inhibition at 10 µM
[4] = biological target: Receptor tyrosine-protein kinase erbB-2 (Homo sapiens, UniProt P04626); experiment: biochemical; type: cell-based, Insect cells; conditions: insect cells;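 also: inhibition of HER2 kinase enzyme activity, measured with Poly(Glu:Tyr) as the phosphorylation substrate; in other assays of this panel Not Active means under 50% inhibition at 10 µM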
Sequence of Receptor tyrosine-protein kinase erbB-2 (P04626 whole entry): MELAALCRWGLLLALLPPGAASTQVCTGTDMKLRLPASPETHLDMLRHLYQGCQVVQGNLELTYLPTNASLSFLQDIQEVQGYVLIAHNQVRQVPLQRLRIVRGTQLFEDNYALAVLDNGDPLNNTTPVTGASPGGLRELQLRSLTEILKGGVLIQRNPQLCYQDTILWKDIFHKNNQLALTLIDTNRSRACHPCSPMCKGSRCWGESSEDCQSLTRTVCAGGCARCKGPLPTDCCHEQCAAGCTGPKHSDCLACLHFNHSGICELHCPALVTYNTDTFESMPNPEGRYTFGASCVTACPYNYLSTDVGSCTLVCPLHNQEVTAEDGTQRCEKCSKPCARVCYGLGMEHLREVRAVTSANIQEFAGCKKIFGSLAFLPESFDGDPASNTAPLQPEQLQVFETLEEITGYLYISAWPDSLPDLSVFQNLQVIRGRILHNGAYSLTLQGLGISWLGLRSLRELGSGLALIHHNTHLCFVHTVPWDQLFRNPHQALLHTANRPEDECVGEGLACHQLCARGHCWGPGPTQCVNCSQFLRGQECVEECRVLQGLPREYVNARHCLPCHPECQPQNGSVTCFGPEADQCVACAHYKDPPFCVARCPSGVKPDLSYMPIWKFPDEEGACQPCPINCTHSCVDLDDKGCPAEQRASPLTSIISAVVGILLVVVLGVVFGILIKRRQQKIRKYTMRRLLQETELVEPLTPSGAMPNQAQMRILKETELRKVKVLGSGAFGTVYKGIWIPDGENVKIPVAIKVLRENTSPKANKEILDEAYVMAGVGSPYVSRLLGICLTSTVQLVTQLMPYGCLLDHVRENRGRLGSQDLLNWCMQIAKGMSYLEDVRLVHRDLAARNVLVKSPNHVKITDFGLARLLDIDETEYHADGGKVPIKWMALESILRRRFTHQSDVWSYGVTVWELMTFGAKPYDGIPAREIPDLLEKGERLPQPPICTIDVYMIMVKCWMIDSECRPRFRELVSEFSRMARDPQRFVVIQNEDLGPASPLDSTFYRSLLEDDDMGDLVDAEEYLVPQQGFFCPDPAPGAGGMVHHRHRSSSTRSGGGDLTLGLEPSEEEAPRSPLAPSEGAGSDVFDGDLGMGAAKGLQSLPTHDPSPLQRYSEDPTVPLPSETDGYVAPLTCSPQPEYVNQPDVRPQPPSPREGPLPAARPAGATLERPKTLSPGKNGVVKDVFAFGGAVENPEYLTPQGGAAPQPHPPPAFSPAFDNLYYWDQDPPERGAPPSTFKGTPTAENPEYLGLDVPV

[5] = DRUGMATRIX: Sigma2 radioligand binding (ligand: [3H] Ifenprodil); type: cell membranes, Rattus norvegicus, Wistar, Brain, Membrane; conditions: Not Active = under 50% inhibition at 10 µM
[6] = biological target: T3, Calcitonin receptor (Homo sapiens, UniProt P30988); type: cell membranes, Membrane; conditions: t47d; also: in other assays of this panel Not Active means under 50% inhibition at 10 µM
T3 sequence (P30988 whole entry): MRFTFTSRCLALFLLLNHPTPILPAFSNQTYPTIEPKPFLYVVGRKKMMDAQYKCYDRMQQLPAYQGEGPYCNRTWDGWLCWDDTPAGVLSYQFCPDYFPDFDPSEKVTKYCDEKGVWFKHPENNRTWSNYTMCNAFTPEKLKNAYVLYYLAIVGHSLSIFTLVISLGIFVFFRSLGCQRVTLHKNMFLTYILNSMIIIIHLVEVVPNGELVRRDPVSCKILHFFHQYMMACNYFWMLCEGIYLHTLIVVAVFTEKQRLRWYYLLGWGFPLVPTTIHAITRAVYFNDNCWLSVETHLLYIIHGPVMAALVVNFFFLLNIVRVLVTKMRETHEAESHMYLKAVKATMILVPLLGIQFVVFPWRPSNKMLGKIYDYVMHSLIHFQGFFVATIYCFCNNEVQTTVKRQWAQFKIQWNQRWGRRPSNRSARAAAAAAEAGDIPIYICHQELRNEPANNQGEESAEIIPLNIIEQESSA

Nn1nnc2ccccc21
Not Active: IC50 [1] | IC50 [2] | IC50 [3] | Ki [3] | IC50 [4] | IC50 [5] | Ki [5] | IC50 [6]

CC[C@]1(O)CC[C@H]2[C@@H]3CCC4=CCCC[C@@H]4[C@H]3CC[C@@]21C
Not Active: IC50 [1] | IC50 [2] | IC50 [3] | Ki [3] | IC50 [4] | IC50 [5] | Ki [5] | IC50 [6]

N[C@@H](Cc1ccc(F)cc1)C(=O)O
Not Active: IC50 [1] | IC50 [2] | IC50 [3] | Ki [3] | IC50 [4] | IC50 [5] | Ki [5] | IC50 [6]

CCOC(=O)[C@H](CCc1ccccc1)N[C@@H](C)C(=O)N1Cc2ccccc2C[C@H]1C(=O)O
Not Active: IC50 [1] | IC50 [2] | IC50 [3] | Ki [3] | IC50 [4] | IC50 [5] | Ki [5] | IC50 [6]

O=C(c1ccccc1Cl)N1CCC(Cc2ccccc2)CC1
Not Active: IC50 [1] | IC50 [2] | IC50 [3] | Ki [3] | IC50 [4] | IC50 [5] | Ki [5] | IC50 [6]

CCOC(=O)[C@H](CCc1ccccc1)N[C@@H](C)C(=O)N1CCC[C@H]1C(=O)O
Not Active: IC50 [1] | IC50 [2] | IC50 [3] | Ki [3] | IC50 [4] | IC50 [5] | Ki [5] | IC50 [6]

Clc1cc2c(cc1Cl)Oc1cc(Cl)c(Cl)cc1O2 [2,3,7,8-TETRACHLORODIBENZO-P-DIOXIN]
Not Active: IC50 [1] | IC50 [2] | IC50 [3] | Ki [3] | IC50 [4] | IC50 [5] | Ki [5] | IC50 [6]

CC(C)C[C@H]1C(=O)N2CCC[C@H]2[C@]2(O)O[C@](NC(=O)[C@@H]3C=C4c5cccc6[nH]c(Br)c(c56)C[C@H]4N(C)C3)(C(C)C)C(=O)N12 [BROMOCRIPTINE]
Not Active: IC50 [2] | IC50 [3] | Ki [3] | IC50 [4] | IC50 [5] | Ki [5] | IC50 [6]

CN1C[C@H](C(=O)N[C@]2(C)O[C@@]3(O)[C@@H]4CCCN4C(=O)[C@H](Cc4ccccc4)N3C2=O)C[C@@H]2c3cccc4[nH]cc(c34)C[C@H]21 [DIHYDROERGOTAMINE]
Not Active: IC50 [2] | IC50 [3] | Ki [3] | IC50 [4] | IC50 [5] | Ki [5] | IC50 [6]

N=C(N)N/N=C/c1c(Cl)cccc1Cl [GUANABENZ]
Not Active: IC50 [2] | IC50 [3] | Ki [3] | IC50 [4] | IC50 [5] | Ki [5] | IC50 [6]
